Assay results reported in patent US11666562B2, “Ilaprazole for inhibiting the release of enveloped viruses from cells” (Northwestern University, priority 2020, dated 2023).
Entries after “also recorded” stand apart in the source; their conditions may differ.

What was measured:
HSV-1 = experiment: Transmission electron microscopy of HSV-1 infected Vero cells, location of virus particles; type: cell-based, Herpes simplex virus-1 (Kos strain); details: HSV-1, 18 μM ilaprazole, 24 h
Procedure: FIG. 4. Inhibitory effect of Ilaprazole on HSV-2 and HSV-1 production. Vero cells infected with HSV-2 or HSV-1 at MOI of 0.1 and examined by transmission electron microscopy 24 h later. HSV-2 infected untreated cells (A & B) and cells treated with 18 μM ilaprazole (C & D). HSV-1 infected untreated cells (E & F) and cells treated with 18 μM ilaprazole (G & H). Eighty cells where virus particles were observed were examined. In the presence of ilaprazole, we observe no or very few particles in the cytoplasm. Treated cells also have an accumulation of electron dense material and particles associated with them. In untreated HSV-2 infected cells, we observed an average of 120 particles ranging from 28-204 […], and an average of 16 particles ranging from 10-22 in the nucleus. In treated HSV-2 infected cells, we observed 0 particles in the cytoplasm and an average of 31 particles ranging from 9-56 in the nucleus. In untreated HSV-1 infected cells we observed an average of 135 particles ranging from 12-152 in the cytoplasm, and an average of 35 particles ranging from 10-66 in the nucleus. In treated HSV-1 infected cells, we observed 0 particles in the cytoplasm and an average of 43 particles ranging from 15-166 in the nucleus. Arrows point to virus particles. Nuc, nucleus. Cyt, cytoplasm.
We next carried out a transmission electron microscopic examination of cells infected with HSV-2 at a MOI 0.1 in the presence and absence of 18 μM ilaprazole to determine if this drug causes the accumulation of virus particles in the nucleus of cells similar to tenatoprazole. […] In both heavily infected cells (FIGS. 4A & C) and mildly infected cells (FIGS. 4B & D), treatment lead to particles being detected in the nucleus and arrayed along the nuclear membrane but lacking in the cytosol. […] The lower total infectious virus detected in Table 3 (FIG. 7) is consistent with blockage of the virus passaging out of the nucleus into the cytoplasm where membranes are exchanged and virus becomes infectious. […]

DHPH = experiment: FTS assay against unrelated protein DHPH; type: binding, human
Text: (§1) FIG. 1. Thermal shift data of Tsg101 by lead compound Tenatoprazole (N16). […] (B) Thermal shift data of three human proteins, DHPH, ENO1, and MEK4 not related to Tsg101 by lead compound tenatoprazole. […] (C) The addition of DTT abolishes the Tm shift in the FTS assay, consistent with prazole compounds forming a disulfide bond to Tsg101. Rabe: Rabeprazole, Ila: Ilaprazole, Tenato: tenatoprazole, Panto: pantoprazole, ref: reference.
(§2) This specific binding is consistent with a previous NMR structure in which tenatoprazole forms a covalent disulfide bond to Cys73 in the UEV domain of the protein (5). This disulfide bond formation can be prevented by including the reducing agent DTT in the assay (FIG. 1C). The addition of DTT abolished the Tsg101-UEV Tm shift caused by the prazoles. […]
(§3) Fluorescence thermal shift (FTS) screening to identify small molecule binding to Tsg101-UEV. […] Discovery of small molecule binding to target protein utilizes the observation that ligand binding affects protein thermal stability, and therefore can be detected through a shift in the protein's thermal denaturation (melting) temperature (Tm). […] A fluorescence dye Sypro-Orange (Invitrogen) was used for assay detection. The dye is excited at 473 nm and has a fluorescence emission at 610 nm. […] Fluorescence was detected on a real-time PCR machine CFX384 (Bio-Rad Laboratories).

MEK4 = target: T1, MEK4 (Homo sapiens, UniProt P45985); experiment: FTS assay against unrelated protein MEK4; type: binding
T1 sequence (P45985 1-399): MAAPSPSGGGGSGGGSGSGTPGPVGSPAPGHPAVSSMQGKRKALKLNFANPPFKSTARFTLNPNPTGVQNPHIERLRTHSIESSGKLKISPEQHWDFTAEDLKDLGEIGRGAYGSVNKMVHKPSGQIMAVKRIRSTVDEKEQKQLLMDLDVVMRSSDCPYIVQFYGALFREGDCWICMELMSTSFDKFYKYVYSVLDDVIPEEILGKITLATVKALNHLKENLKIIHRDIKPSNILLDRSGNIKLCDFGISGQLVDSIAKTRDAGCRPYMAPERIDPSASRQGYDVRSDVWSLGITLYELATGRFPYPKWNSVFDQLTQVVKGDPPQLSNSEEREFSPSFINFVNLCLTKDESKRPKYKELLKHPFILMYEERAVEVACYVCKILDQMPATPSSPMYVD
Text: as §1, §2, §3

ENO1 = ENO1 (Homo sapiens, UniProt P06733); experiment: FTS assay against unrelated protein ENO1; type: binding
ENO1, sequence (P06733 whole entry): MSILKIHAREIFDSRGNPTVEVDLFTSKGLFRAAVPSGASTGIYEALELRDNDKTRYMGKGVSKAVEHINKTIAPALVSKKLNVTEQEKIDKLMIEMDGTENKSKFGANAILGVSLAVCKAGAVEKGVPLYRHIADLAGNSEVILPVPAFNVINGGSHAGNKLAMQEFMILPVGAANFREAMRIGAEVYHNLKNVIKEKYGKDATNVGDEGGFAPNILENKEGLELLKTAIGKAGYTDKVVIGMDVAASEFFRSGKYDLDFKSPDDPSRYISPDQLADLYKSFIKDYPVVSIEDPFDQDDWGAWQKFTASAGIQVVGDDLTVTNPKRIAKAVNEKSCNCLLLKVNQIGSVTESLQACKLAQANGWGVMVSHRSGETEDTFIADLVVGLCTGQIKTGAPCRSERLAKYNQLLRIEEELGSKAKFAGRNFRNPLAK
Text: as §1, §2, §3

| SMILES | Average number of virus particles in the nucleus (HSV-1) | Range of number of virus particles in the nucleus (HSV-1) | Virus particles in the cytoplasm (HSV-1) | Effect on thermal stability (Tm shift) of DHPH (DHPH) | Effect on thermal stability (Tm shift) of MEK4 (MEK4) | Effect on thermal stability (Tm shift) of ENO1 (ENO1) |
| --- | --- | --- | --- | --- | --- | --- |
| COc1ccnc(C[S+]([O-])c2nc3ccc(-n4cccc4)cc3[nH]2)c1C (stereo not drawn) [Ilaprazole, 2-[(4-methoxy-3-methylpyridin-2-yl)methylsulfinyl]-6-pyrrol-1-yl-1H-benzimidazole] | 43 particles | 15-166 particles | 0 particles |  |  |  |
| COc1ccc2[nH]c([S+]([O-])Cc3ncc(C)c(OC)c3C)nc2n1 (stereo not drawn) [Tenatoprazole] |  |  |  | negligible; also recorded: did not observe a Tm shift | negligible; also recorded: did not observe a Tm shift | negligible; also recorded: did not observe a Tm shift |
